# From patent US11911346B2, “Orally administrated therapeutic for treating mild cognitive impairment (MCI) and improving human cognitive function” (BrainCare LLC, priority 2021, dated 2024)
# Tested on: cognitive function of participants with Subjective Cognitive Decline
# Assay: Cognitive Failures Questionnaire (CFQ), 8-week randomized study of one or two BCP capsules daily
# Format: in vivo, human
# Conditions: for CFQ score: Do you bump into people? / CFQ score: Do you confuse left and right when giving people directions? / CFQ score: Do you daydream when you ought to be listening to something? / CFQ score: Do you fail to hear people speaking to you when you are doing something? / CFQ score: Do you fail to listen to people's names when you are meeting them for the first time? / CFQ score: Do you fail to notice signposts on the road? / CFQ score: Do you fail to see what you want in a supermarket (although it's there)? / CFQ score: Do you find that you drop things? / CFQ score: Do you find that you forget appointments? / CFQ score: Do you find you accidentally misplace things like placing the fruit in the cupboard and the bowl in the refrigerator? / CFQ score: Do you find you can't quite remember something although it's “on the tip of your tongue”? / CFQ score: Do you find you can't think of anything to say? / CFQ score: Do you find you forget people's names? / CFQ score: Do you find you forget what you came to the store to buy? / CFQ score: Do you find you forget whether you've turned off a light or locked the door? / CFQ score: Do you find you forget which way to turn on a road you know well but rarely use? / CFQ score: Do you find you forget why you went from one place of the house to the other? / CFQ score: Do you find yourself suddenly wondering if you used a word correctly? / CFQ score: Do you forget where you put something like a newspaper or a book? / CFQ score: Do you have trouble making up your mind? / CFQ score: Do you lose track of paying bills? / CFQ score: Do you lose your temper and regret it? / CFQ score: Do you read something and find you haven't been thinking about it and must read it again? / CFQ score: Do you say something and realize afterwards that it might be taken as an insult? / CFQ score: Do you start doing one thing at home and get distracted and do something else (unintentionally)? / Distractibility summed sub-score of CFQ / False triggering summed sub-score of CFQ / Forgetfulness summed sub-score of CFQ / Total CFQ summed sub-score: lower is better
# [1] = one capsule daily (90 mg BCP), week 4
# [2] = one capsule daily (90 mg BCP), week 8
# [3] = two capsules daily (180 mg BCP), week 4
smiles,measurement,setting,value
"C=C1CC/C=C(\C)CC[C@@H]2[C@@H]1CC2(C)C [BCP, beta-caryophyllene]",CFQ % better vs. baseline: Do you bump into people?,[1],29% better
same,CFQ % better vs. baseline: Do you daydream when you ought to be listening to something?,[1],16% better
same,CFQ % better vs. baseline: Do you fail to hear people speaking to you when you are doing something?,[1],15% better
same,CFQ % better vs. baseline: Do you fail to notice signposts on the road?,[1],17% better
same,CFQ % better vs. baseline: Do you fail to see what you want in a supermarket (although it's there)?,[1],14% better
same,CFQ % better vs. baseline: Do you find that you drop things?,[1],14% better
same,CFQ % better vs. baseline: Do you find you accidentally misplace things like placing the fruit in the cupboard and the bowl in the refrigerator?,[1],17% better
same,CFQ % better vs. baseline: Do you find you can't quite remember something although it's “on the tip of your tongue”?,[1],12% better
same,CFQ % better vs. baseline: Do you find you can't think of anything to say?,[1],15% better
same,CFQ % better vs. baseline: Do you find you forget people's names?,[1],12% better
same,CFQ % better vs. baseline: Do you find you forget what you came to the store to buy?,[1],12% better
same,CFQ % better vs. baseline: Do you find you forget whether you've turned off a light or locked the door?,[1],11% better
same,CFQ % better vs. baseline: Do you find you forget which way to turn on a road you know well but rarely use?,[1],27% better
same,CFQ % better vs. baseline: Do you find yourself suddenly wondering if you used a word correctly?,[1],14% better
same,CFQ % better vs. baseline: Do you have trouble making up your mind?,[1],13% better
same,CFQ % better vs. baseline: Do you lose track of paying bills?,[1],23% better
same,CFQ % better vs. baseline: Do you read something and find you haven't been thinking about it and must read it again?,[1],11% better
same,CFQ % better vs. baseline: Do you say something and realize afterwards that it might be taken as an insult?,[1],28% better
same,CFQ % worse vs. baseline: Do you confuse left and right when giving people directions?,[1],17% worse
same,CFQ % worse vs. baseline: Do you find that you forget appointments?,[1],25% worse
same,CFQ change vs. baseline: Do you fail to listen to people's names when you are meeting them for the first time?,[1],No change
same,CFQ change vs. baseline: Do you lose your temper and regret it?,[1],No change
same,CFQ change vs. baseline: Do you start doing one thing at home and get distracted and do something else (unintentionally)?,[1],no change
same,CFQ score: Do you bump into people?,[1],0.5 ± 0.6
same,CFQ score: Do you confuse left and right when giving people directions?,[1],0.7 ± 1.0
same,CFQ score: Do you daydream when you ought to be listening to something?,[1],1.6 ± 0.8
same,CFQ score: Do you fail to hear people speaking to you when you are doing something?,[1],1.7 ± 0.9
same,CFQ score: Do you fail to listen to people's names when you are meeting them for the first time?,[1],2.2 ± 1.1
same,CFQ score: Do you fail to notice signposts on the road?,[1],1.0 ± 0.7
same,CFQ score: Do you fail to see what you want in a supermarket (although it's there)?,[1],1.2 ± 0.7
same,CFQ score: Do you find that you drop things?,[1],1.2 ± 0.9
same,CFQ score: Do you find that you forget appointments?,[1],1.0 ± 0.7
same,CFQ score: Do you find you accidentally misplace things like placing the fruit in the cupboard and the bowl in the refrigerator?,[1],1.0 ± 0.8
same,CFQ score: Do you find you can't quite remember something although it's “on the tip of your tongue”?,[1],2.3 ± 0.8
same,CFQ score: Do you find you can't think of anything to say?,[1],1.1 ± 0.8
same,CFQ score: Do you find you forget people's names?,[1],2.2 ± 1.0
same,CFQ score: Do you find you forget what you came to the store to buy?,[1],1.5 ± 0.8
same,CFQ score: Do you find you forget whether you've turned off a light or locked the door?,[1],1.6 ± 0.8
same,CFQ score: Do you find you forget which way to turn on a road you know well but rarely use?,[1],0.8 ± 0.7
same,CFQ score: Do you find you forget why you went from one place of the house to the other?,[1],1.7 ± 0.6
same,CFQ score: Do you find yourself suddenly wondering if you used a word correctly?,[1],1.2 ± 0.8
same,CFQ score: Do you forget where you put something like a newspaper or a book?,[1],1.8 ± 0.9
same,CFQ score: Do you have trouble making up your mind?,[1],1.3 ± 0.7
same,CFQ score: Do you lose track of paying bills?,[1],1.0 ± 0.8
same,CFQ score: Do you lose your temper and regret it?,[1],1.1 ± 0.7
same,CFQ score: Do you read something and find you haven't been thinking about it and must read it again?,[1],1.7 ± 0.9
same,CFQ score: Do you say something and realize afterwards that it might be taken as an insult?,[1],1.1 ± 1.0
same,CFQ score: Do you start doing one thing at home and get distracted and do something else (unintentionally)?,[1],2.3 ± 0.8
same,Distractibility summed sub-score of CFQ,[1],11 ± 4
same,False triggering summed sub-score of CFQ,[1],9 ± 4
same,Forgetfulness summed sub-score of CFQ,[1],14 ± 5
same,Total CFQ summed sub-score,[1],34 ± 10
same,CFQ % better vs. baseline: Do you daydream when you ought to be listening to something?,[2],11% better
same,CFQ % better vs. baseline: Do you fail to hear people speaking to you when you are doing something?,[2],20% better
same,CFQ % better vs. baseline: Do you fail to listen to people's names when you are meeting them for the first time?,[2],14% better
same,CFQ % better vs. baseline: Do you fail to notice signposts on the road?,[2],17% better
same,CFQ % better vs. baseline: Do you fail to see what you want in a supermarket (although it's there)?,[2],7% better
same,CFQ % better vs. baseline: Do you find that you drop things?,[2],14% better
same,CFQ % better vs. baseline: Do you find you accidentally misplace things like placing the fruit in the cupboard and the bowl in the refrigerator?,[2],25% better
same,CFQ % better vs. baseline: Do you find you forget people's names?,[2],12% better
same,CFQ % better vs. baseline: Do you find you forget what you came to the store to buy?,[2],18% better
same,CFQ % better vs. baseline: Do you find you forget whether you've turned off a light or locked the door?,[2],17% better
same,CFQ % better vs. baseline: Do you find you forget which way to turn on a road you know well but rarely use?,[2],27% better
same,CFQ % better vs. baseline: Do you find yourself suddenly wondering if you used a word correctly?,[2],14% better
same,CFQ % better vs. baseline: Do you have trouble making up your mind?,[2],7% better
same,CFQ % better vs. baseline: Do you lose track of paying bills?,[2],15% better
same,CFQ % better vs. baseline: Do you lose your temper and regret it?,[2],9% better
same,CFQ % better vs. baseline: Do you read something and find you haven't been thinking about it and must read it again?,[2],16% better
same,CFQ % better vs. baseline: Do you say something and realize afterwards that it might be taken as an insult?,[2],20% better
same,CFQ % better vs. baseline: Do you start doing one thing at home and get distracted and do something else (unintentionally)?,[2],4% better
same,CFQ % worse vs. baseline: Do you confuse left and right when giving people directions?,[2],17% worse
same,CFQ % worse vs. baseline: Do you find that you forget appointments?,[2],13% worse
same,CFQ change vs. baseline: Do you bump into people?,[2],No change
same,CFQ change vs. baseline: Do you find you can't think of anything to say?,[2],no change
same,CFQ score: Do you bump into people?,[2],0.7 ± 0.6
same,CFQ score: Do you confuse left and right when giving people directions?,[2],0.7 ± 0.9
same,CFQ score: Do you daydream when you ought to be listening to something?,[2],1.7 ± 0.9
same,CFQ score: Do you fail to hear people speaking to you when you are doing something?,[2],1.6 ± 0.9
same,CFQ score: Do you fail to listen to people's names when you are meeting them for the first time?,[2],1.9 ± 1.2
same,CFQ score: Do you fail to notice signposts on the road?,[2],1.0 ± 0.8
same,CFQ score: Do you fail to see what you want in a supermarket (although it's there)?,[2],1.3 ± 0.9
same,CFQ score: Do you find that you drop things?,[2],1.2 ± 0.7
same,CFQ score: Do you find that you forget appointments?,[2],0.9 ± 0.8
same,CFQ score: Do you find you accidentally misplace things like placing the fruit in the cupboard and the bowl in the refrigerator?,[2],0.9 ± 0.7
same,CFQ score: Do you find you can't quite remember something although it's “on the tip of your tongue”?,[2],2.1 ± 0.7
same,CFQ score: Do you find you can't think of anything to say?,[2],1.3 ± 0.8
same,CFQ score: Do you find you forget people's names?,[2],2.2 ± 0.8
same,CFQ score: Do you find you forget what you came to the store to buy?,[2],1.4 ± 0.8
same,CFQ score: Do you find you forget whether you've turned off a light or locked the door?,[2],1.5 ± 0.7
same,CFQ score: Do you find you forget which way to turn on a road you know well but rarely use?,[2],0.8 ± 0.7
same,CFQ score: Do you find you forget why you went from one place of the house to the other?,[2],1.7 ± 0.6
same,CFQ score: Do you find yourself suddenly wondering if you used a word correctly?,[2],1.2 ± 0.7
same,CFQ score: Do you forget where you put something like a newspaper or a book?,[2],1.8 ± 0.7
same,CFQ score: Do you have trouble making up your mind?,[2],1.4 ± 0.9
same,CFQ score: Do you lose track of paying bills?,[2],1.1 ± 0.8
same,CFQ score: Do you lose your temper and regret it?,[2],1.0 ± 0.6
same,CFQ score: Do you read something and find you haven't been thinking about it and must read it again?,[2],1.6 ± 0.9
same,CFQ score: Do you say something and realize afterwards that it might be taken as an insult?,[2],1.2 ± 0.7
same,CFQ score: Do you start doing one thing at home and get distracted and do something else (unintentionally)?,[2],2.2 ± 0.6
same,Distractibility summed sub-score of CFQ,[2],11 ± 3
same,False triggering summed sub-score of CFQ,[2],9 ± 4
same,Forgetfulness summed sub-score of CFQ,[2],13 ± 5
same,Total CFQ summed sub-score,[2],33 ± 11
same,CFQ % better vs. baseline: Do you bump into people?,[3],14% better
same,CFQ % better vs. baseline: Do you confuse left and right when giving people directions?,[3],22% better
same,CFQ % better vs. baseline: Do you daydream when you ought to be listening to something?,[3],28%
same,CFQ % better vs. baseline: Do you fail to hear people speaking to you when you are doing something?,[3],12% better
same,CFQ % better vs. baseline: Do you fail to listen to people's names when you are meeting them for the first time?,[3],22% better
same,CFQ % better vs. baseline: Do you fail to notice signposts on the road?,[3],30% better
same,CFQ % better vs. baseline: Do you fail to see what you want in a supermarket (although it's there)?,[3],15% better
same,CFQ % better vs. baseline: Do you find that you drop things?,[3],27% better
same,CFQ % better vs. baseline: Do you find that you forget appointments?,[3],30% better
same,CFQ % better vs. baseline: Do you find you accidentally misplace things like placing the fruit in the cupboard and the bowl in the refrigerator?,[3],13% better
same,CFQ % better vs. baseline: Do you find you can't quite remember something although it's “on the tip of your tongue”?,[3],20%
same,CFQ % better vs. baseline: Do you find you can't think of anything to say?,[3],27% better
same,CFQ % better vs. baseline: Do you find you forget people's names?,[3],20% better
same,CFQ % better vs. baseline: Do you find you forget what you came to the store to buy?,[3],33% better
same,CFQ % better vs. baseline: Do you find you forget whether you've turned off a light or locked the door?,[3],45%
same,CFQ % better vs. baseline: Do you find you forget which way to turn on a road you know well but rarely use?,[3],33% better
same,CFQ % better vs. baseline: Do you find you forget why you went from one place of the house to the other?,[3],39%
